Test results: patent US5286740A, “Carbamoyl derivatives” (Imperial Chemical Industries PLC, priority 1989, dated 1994)

Tested on: leukotriene LTD4 aerosol challenge in guinea-pigs
Experiment: guinea-pig aerosol test (LTD4 aerosol challenge, onset of dyspnea)
Format: in vivo
Conditions: for ED50: Cavia porcellus, oral administration, solution in poly(ethylene glycol), predosed generally 1 hour before LTD4 aerosol, read-out: ED50 (protection against LTD4-induced dyspnea)
Protocol: According to this procedure, guinea-pigs are predosed with test compound as a solution in poly(ethylene glycol) (generally 1 hour) before an aerosol challenge of leukotriene LTD4 (starting with 2 ml of a 30 microgram/ml solution) and the effect of the test compound on the average time of leukotriene initiated change in breathing pattern (such as onset of dyspnea) recorded and compared with that in undosed-, control guinea-pigs. Percent protection engendered by a test compound was calculated from the time delay to the onset of dyspnea compared to that for control animals.

Structure (SMILES) | ED50 [µmol/kg] | untoward side-effects (oral, at several multiples of the minimum effective dose)
COc1cc(C(=O)NS(=O)(=O)c2ccccc2C)ccc1Cc1cn(C)c2ccc(C(=O)NC[C@H](C)CC(F)(F)F)cc12 [Example 2, (R)-3-Methoxy-4-[1-methyl-5-(2-methyl-4,4,4-trifluorobutylcarbamoyl)indol-3-ylmethyl]-N-(2-methylphenylsulfonyl)benzamide] | 1.1 | without any indication of untoward side-effects
COc1cc(C(=O)NS(=O)(=O)c2ccccc2C)ccc1Cc1cn(C)c2ccc(C(=O)NCC3CCCC3)cc12 [reference compound] | 19.2 | 
